{
  "source": "patent EP0565593B1",
  "about": "“REDUCING PESTICIDAL INTERACTIONS IN CROPS” (priority 1990, dated 1992)",
  "key": {"Corn [1]": {"tested_on": "Corn", "experiment": "Greenhouse test Procedure II: herbicide, insecticide and antidote incorporated in cover layer (Example 4; Table 4)", "format": "in vivo", "conditions": "3 weeks", "description": "Containers were filled and compacted with a fumigated silt loam top soil to a depth of about 1.3 cm from the top of the container. A first container was designated as an untreated control, a second container was designated as a herbicide control, and a third container was designated as a herbicide + antidote test container. Each of the containers was seeded with a crop species. A measured amount of herbicide dispersed or dissolved in acetone was applied to a measured quantity of soil. To this same quantity of soil treated with herbicide, there was added a measured amount of antidote dispersed or dissolved in acetone. The quantity of soil treated with the herbicide and antidote was thoroughly mixed to incorporate the herbicide and antidote in the soil uniformly. The seed bed in the third container of soil was covered with the soil treated with the herbicide and antidote and the container was leveled. For each test series, the seed beds of the first and second containers were likewise covered by soil layers. the cover layer of the first container was not treated with herbicide or antidote.\nThis procedure is the same as Procedure I, but modified in the manner that after incorporation of the chemicals (herbicide, antidote and insecticide), the containers with the covered seedbed were treated with an initial overhead irrigation equivalent to 0.6 cm rainfall, then subsequently sub-irrigated as required on greenhouse benches.\nThe procedure used in this test was Procedure No. 2 above. Formulations of herbicide, insecticide and antidote were applied via track sprayer sequentially onto cover layers, incorporated into the soil which was spread over seedbeds, then irrigated from above with 0.6 cm water. Observations were made three (3) weeks after treatment."}, "Corn [2]": {"tested_on": "Corn", "experiment": "Field trials, PPI, PRE and POE herbicide applications with terbufos (Example 7)", "format": "in vivo", "excerpt": "This example summarizes the results of one series of field trials from a plurality of locations and soil types wherein test chemicals were applied in various modes including pre-plant incorporated (PPI), post emergence (POE) and preemergence (PRE) with and without a safener (antidote). Test Chemicals were Herbicide Nos 1, 2, 3 and 7-9; Insecticide No. 1 and Antidote No. 1.\nIn these trials Insecticide No. 1 (terbufos) was T-banded or furrow applied at labeled rates prior to planting corn. PPI herbicide treatments were applied prior to insecticide applications; PRE treatments were applied after the insecticide application either prior to or after seeding the corn. POE herbicide applications were made at 2 corn-growth stages, i.e., early post (EP) at the 2-3 leaf stage and late post (LP) at the 4-7 leaf stage. Plots were small plot with 3 replications in a randomized complete block design. In the PRE and PPI herbicide treatments, Antidote No. 1 was applied as a tankmix in both treatments. In the POE herbicide treatments, that antidote was applied as a tank mix with the herbicide at the EP and LP stages."}, "SJCA": {"tested_on": "SJCA", "experiment": "Greenhouse test Procedure IV: herbicide, biocide and antidote PPI, weed SJCA (Examples 53-55; Tables 52-54)", "format": "in vivo", "conditions": "all PPI; for % Inhibition SJCA: Herbicide No. 1, rate printed as '-'", "excerpt": "The test in this example paralleled that in Example 51, except the procedure was according to Procedure IV above and the herbicides used were No. 1 (MON-12000); No. 21 (XRD-498) and, again, No. 18 (PURSUIT); the biocide was, again, MOCAP®. Observations were taken thirteen (13) days after PPI treatment with biocide and antidote.\nThis test was identical to that in Example 52, except for use of a different biocide, DIAZINON (Biocide No. 5, a nematicide and soil insecticide).\nThis test was also identical to that in the preceding two examples, except that the biocide was malathion (No. 7, an insecticide).\nThis test was identical to the preceding ones, except the biocide was DPX-43898 (No. 6, active ingredient in FORTRESS® insecticide, a soil insecticide). Also, the observation time was fourteen (14) days after PPI initiation."}, "Corn [3]": {"tested_on": "Corn", "experiment": "whole plant or invertebrate", "conditions": "Zea mays, iv, 312 h"}},
  "note": "Read-outs that look alike come from different tables or passages of the source.",
  "data": [
    {"smiles": "COC(=O)c1c(Cl)nn(C)c1S(=O)(=O)NC(=O)Nc1nc(OC)cc(OC)n1", "note": "[Herbicide No. 1, N-[(4,6-dimethoxypyrimidin-2-yl)aminocarbonyl]-3-chloro-4-methoxycarbonyl-5-sulfonamide, reference compound]", "values": [
      {"measurement": "% Injury Corn", "setting": "Corn [1]; Herbicide 1 0.07 kg/Ha", "result": 2, "unit": "%"},
      {"measurement": "% Injury Corn", "setting": "Corn [1]; Herbicide 1 0.14 kg/Ha", "result": 13, "unit": "%"},
      {"measurement": "% Injury Corn", "setting": "Corn [1]; Insecticide 2 3.36 + Herbicide 1 0.07 kg/Ha", "result": 0, "unit": "%"},
      {"measurement": "% Injury Corn", "setting": "Corn [1]; Insecticide 2 3.36 + Herbicide 1 0.14 kg/Ha", "result": 38, "unit": "%"},
      {"measurement": "interaction with Insecticide No. 1 after POE herbicide", "setting": "Corn [2]; mean of five locations, soil-applied insecticide prior to planting", "result": "insignificant interaction"},
      {"measurement": "inhibition at 140 g/ha", "setting": "SJCA; 312 h, Table 52, Herbicide No. 1 0.14 Kg/Ha, where applied Biocide No. 5 8.96 kg/Ha and antidote 4.48 Kg/Ha, observed 13 days after treatment", "result": 70, "unit": "%"},
      {"measurement": "% Inhibition SJCA", "setting": "SJCA; Table 53, where applied Biocide No. 7 8.96 kg/Ha and antidote 4.48 Kg/Ha, observed 13 days after treatment", "result": 75, "unit": "%"},
      {"measurement": "% Inhibition SJCA", "setting": "SJCA; Table 54, where applied Biocide No. 6 8.96 kg/Ha and antidote 4.48 Kg/Ha, observed 14 days after PPI initiation", "result": 65, "unit": "%"},
      {"measurement": "inhibition at 140 g/ha", "setting": "Corn [3]; read-out: % Inhibition Corn, Herb. No. 1 0.14 kg/Ha alone, PPI, 13 days after planting", "result": 10, "unit": "%"},
      {"measurement": "inhibition at 140 g/ha", "setting": "Corn [3]; read-out: % Inhibition Corn, Table 51, Herbicide No. 1 0.14 Kg/Ha, where applied Biocide No. 8 8.96 kg/Ha and antidote 4.48 Kg/Ha, all PPI, observed 13 days after treatment", "result": 0, "unit": "%"},
      {"measurement": "inhibition at 140 g/ha", "setting": "Corn [3]; read-out: % Inhibition Corn, Table 52, Herbicide No. 1 0.14 Kg/Ha, where applied Biocide No. 5 8.96 kg/Ha and antidote 4.48 Kg/Ha, all PPI, observed 13 days after treatment", "result": 0, "unit": "%"}
    ]},
    {"smiles": "CC1(C)OC(c2ccco2)CN1C(=O)C(Cl)Cl", "note": "(centres unmarked) [Antidote No. 1, Oxazolidine, 3-(dichloroacetyl)-2,2-dimethyl-5-(2-furanyl)-]", "values": [
      {"measurement": "% Injury Corn", "setting": "Corn [1]; Antidote 1 0.07 + Herbicide 1 0.07 kg/Ha", "result": 0, "unit": "%"},
      {"measurement": "% Injury Corn", "setting": "Corn [1]; Antidote 1 0.07 + Herbicide 4 0.07 kg/Ha", "result": 0, "unit": "%"},
      {"measurement": "% Injury Corn", "setting": "Corn [1]; Antidote 1 0.07 + Herbicide 5 0.07 kg/Ha", "result": 20, "unit": "%"},
      {"measurement": "% Injury Corn", "setting": "Corn [1]; Antidote 1 0.07 + Herbicide 6 0.07 kg/Ha", "result": 0, "unit": "%"},
      {"measurement": "% Injury Corn", "setting": "Corn [1]; Antidote 1 0.14 + Herbicide 1 0.14 kg/Ha", "result": 10, "unit": "%"},
      {"measurement": "% Injury Corn", "setting": "Corn [1]; Antidote 1 0.14 + Herbicide 4 0.14 kg/Ha", "result": 8, "unit": "%"},
      {"measurement": "% Injury Corn", "setting": "Corn [1]; Antidote 1 0.14 + Herbicide 5 0.14 kg/Ha", "result": 55, "unit": "%"},
      {"measurement": "% Injury Corn", "setting": "Corn [1]; Antidote 1 0.14 + Herbicide 6 0.14 kg/Ha", "result": 3, "unit": "%"},
      {"measurement": "% Injury Corn", "setting": "Corn [1]; Insecticide 2 3.36 + Antidote 1 0.014 + Herbicide 1 0.14 kg/Ha", "result": 0, "unit": "%"},
      {"measurement": "% Injury Corn", "setting": "Corn [1]; Insecticide 2 3.36 + Antidote 1 0.07 + Herbicide 1 0.07 kg/Ha", "result": 0, "unit": "%"},
      {"measurement": "% Injury Corn", "setting": "Corn [1]; Insecticide 2 3.36 + Antidote 1 0.07 + Herbicide 4 0.07 kg/Ha", "result": 25, "unit": "%"},
      {"measurement": "% Injury Corn", "setting": "Corn [1]; Insecticide 2 3.36 + Antidote 1 0.07 + Herbicide 5 0.07 kg/Ha", "result": 95, "unit": "%"},
      {"measurement": "% Injury Corn", "setting": "Corn [1]; Insecticide 2 3.36 + Antidote 1 0.07 + Herbicide 6 0.07 kg/Ha", "result": 5, "unit": "%"},
      {"measurement": "% Injury Corn", "setting": "Corn [1]; Insecticide 2 3.36 + Antidote 1 0.14 + Herbicide 4 0.14 kg/Ha", "result": 88, "unit": "%"},
      {"measurement": "% Injury Corn", "setting": "Corn [1]; Insecticide 2 3.36 + Antidote 1 0.14 + Herbicide 5 0.14 kg/Ha", "result": 95, "unit": "%"},
      {"measurement": "% Injury Corn", "setting": "Corn [1]; Insecticide 2 3.36 + Antidote 1 0.14 + Herbicide 6 0.14 kg/Ha", "result": 63, "unit": "%"},
      {"measurement": "safening of insecticide interactions", "setting": "Corn [2]; antidote tankmix POE with Herbicide No. 7, Insecticide No. 1", "result": "effectively safened"},
      {"measurement": "crop injury", "setting": "Corn [2]; mean of nine locations, PRE and PPI, Insecticide No. 1, 1:1 Herbicide No. 1:Antidote No. 1 and 30:1 Herbicide No. 2:Antidote No. 1", "result": "reduced from non-commercially-acceptable to commercially-acceptable levels"}
    ]}
  ]
}
